Experimental findings from ChEMBL document CHEMBL1201862, “PubChem BioAssay data set” (2004) are described below.

Each structure is given as a SMILES string.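 Tested at 5 concentrations; 48 h exposure; 96-well plates; endpoints linearly interpolated, else capped at highest concentration. GI50 is the concentration that inhibits growth by half.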 Active and inactive are the calls of the source. No stated cut-off is given here; in the data, active = GI50 up to about 1.1 µM and inactive = higher.

Among the test systems are 786-0; A549; COLO 205; EKVX; HL-60; HT-29; Hs-578T; LOX IMVI; MDA-N; MOLT-4; OVCAR-4; OVCAR-5; RPMI-8226; SF-539; SK-OV-3; SW-620; TK-10; UACC-257; UACC-62; A498.
What all share (experiment): NCI-60 cell line screen, 48 h

`NC(=O)CN1CCN(c2nc(N3CCCC3)c3nc(Cl)c(NCc4ccccc4)nc3n2)CC1`: the GI50 is 8.89 µM (inactive) in the experiment on 786-0; 12.9 µM (inactive) in the experiment on A549; 8.75 µM (inactive) with COLO 205; 11.8 µM (inactive) in the experiment with EKVX; 8.77 µM (inactive) in the experiment on HL-60; 9.48 µM (inactive) in the experiment with HT-29. Further, the GI50 in the experiment on Hs-578T is 9.66 µM (inactive); in the experiment on LOX IMVI, 9.33 µM (inactive); in the experiment on MDA-N it was 8.67 µM (inactive); in the experiment with MOLT-4, 7.26 µM (inactive); in the experiment on OVCAR-4 it was 16 µM (inactive); in the experiment with OVCAR-5, 10.1 µM (inactive). Also, the GI50 with RPMI-8226 is 9.89 µM (inactive); in the experiment on SF-539 it was 9.06 µM (inactive); in the experiment on SK-OV-3, 9.91 µM (inactive); in the experiment on SW-620, 11.5 µM (inactive); in the experiment on TK-10, 14.2 µM (inactive); in the experiment on UACC-257 it was 9.98 µM (inactive). The GI50 in the experiment with UACC-62 was 9.2 µM (inactive).
Consider `C=CC(=O)C#CC#CC/C=C\CCCCCCC`, for which the GI50 in the experiment with 786-0 is > 10.1 µM (inactive); in the experiment on A498, > 20.6 µM (inactive); in the experiment with A549, > 20.6 µM (inactive); in the experiment with COLO 205 it was > 20.6 µM (inactive); in the experiment with EKVX it was > 20.6 µM (inactive); in the experiment with HL-60 it was 9.91 µM (inactive). Moreover, the GI50 in the experiment on HT-29 is > 20.6 µM (inactive); in the experiment on Hs-578T, > 20.6 µM (inactive); with LOX IMVI, 7.76 µM (inactive); with MOLT-4, 4.53 µM (inactive); with OVCAR-4 it was > 20.6 µM (inactive); with OVCAR-5, > 20.6 µM (inactive). Further, the GI50 was 5.6 µM (inactive) with RPMI-8226; > 20.6 µM (inactive) in the experiment with SF-539; > 20.6 µM (inactive) with SK-OV-3; > 20.6 µM (inactive) in the experiment with SW-620; > 20.6 µM (inactive) in the experiment on TK-10; > 20.6 µM (inactive) with UACC-257. In the experiment with UACC-62, the GI50 is > 20.6 µM (inactive).
On to `COc1ccc(/N=N/C(=N/NC(=O)c2cc(Cl)ccc2C(=O)c2ccccc2)c2ccc(N(CCC#N)CCC#N)cc2C)cc1`, for which the GI50 is 18.5 µM (inactive) in the experiment with 786-0; 18.8 µM (inactive) in the experiment with A549; 17.6 µM (inactive) in the experiment with COLO 205; 16.1 µM (inactive) in the experiment on EKVX; 21.5 µM (inactive) in the experiment on HT-29; 29.9 µM (inactive) in the experiment on Hs-578T. Further, the GI50 in the experiment on MDA-N was 21.7 µM (inactive); in the experiment on MOLT-4 it was 9.08 µM (inactive); with OVCAR-4, 21.4 µM (inactive); with OVCAR-5, 18.2 µM (inactive); in the experiment with RPMI-8226, 9.35 µM (inactive); in the experiment with SK-OV-3, 24.4 µM (inactive). Also, the GI50 in the experiment with SW-620 is 22.3 µM (inactive); in the experiment with TK-10, 18.2 µM (inactive); in the experiment with UACC-257 it was 27.7 µM (inactive); in the experiment on UACC-62 it was 17.2 µM (inactive).
As to `O/N=C1/CCCCCC1NO` (stereo unspecified), the GI50 in the experiment with 786-0, with A549, in the experiment with COLO 205, in the experiment with EKVX, with HT-29 and in the experiment with Hs-578T was > 100 µM (inactive) in each case. For the same compound, the GI50 in the experiment on LOX IMVI, with MDA-N, in the experiment with MOLT-4, in the experiment with OVCAR-4, in the experiment on OVCAR-5 and with RPMI-8226 was > 100 µM (inactive) throughout. For the same compound, the GI50 with SF-539, in the experiment with SK-OV-3, in the experiment with SW-620, in the experiment with TK-10, with UACC-257 and in the experiment with UACC-62 was > 100 µM (inactive) each time.
As for `COc1ccc(/C=N/n2c(C)n[nH]c2=O)c(OC)c1`, the GI50 in the experiment with 786-0 was > 100 µM (inactive); in the experiment on A498, 57.9 µM (inactive); with A549, > 100 µM (inactive); in the experiment on COLO 205, > 100 µM (inactive); in the experiment on EKVX, 83 µM (inactive); with HT-29 it was > 100 µM (inactive). For the same compound, the GI50 in the experiment with Hs-578T was 3.08 µM (inactive); in the experiment on MDA-N, > 100 µM (inactive); in the experiment with MOLT-4 it was 85.1 µM (inactive); in the experiment on OVCAR-4, > 100 µM (inactive); in the experiment with OVCAR-5, > 100 µM (inactive); with RPMI-8226 it was > 100 µM (inactive). Further, the GI50 in the experiment on SF-539 is > 100 µM (inactive); in the experiment with SK-OV-3 it was > 100 µM (inactive); with SW-620, > 100 µM (inactive); with UACC-257 it was > 100 µM (inactive); in the experiment on UACC-62 it was 35.2 µM (inactive).
With `Cc1cc(OP2(=O)NCc3ccncc3O2)ccc1Cl` (stereo unspecified), the GI50 with 786-0, in the experiment on A498, in the experiment with A549, in the experiment with COLO 205, in the experiment on EKVX and with HT-29 was > 100 µM (inactive) in each case. The GI50 in the experiment on LOX IMVI, with MDA-N, with MOLT-4, in the experiment on OVCAR-4, in the experiment with OVCAR-5 and in the experiment with RPMI-8226 was > 100 µM (inactive) each time. Also, the GI50 with SF-539, in the experiment on SW-620, in the experiment on UACC-257 and in the experiment on UACC-62 was > 100 µM (inactive) throughout.
As for `S=C(/N=c1\sc(Nc2ccc(Cl)cc2)nc2sc3c(c12)CCN(N1CCc2c(sc4nc(Nc5ccc(Cl)cc5)s/c(=N\C(=S)Nc5ccc(Cl)cc5)c24)C1)C3)Nc1ccc(Cl)cc1`, the GI50 was 18 µM (inactive) with 786-0; 55.2 µM (inactive) with A549; 57.9 µM (inactive) with COLO 205; 61.7 µM (inactive) in the experiment on EKVX; 19 µM (inactive) in the experiment on HT-29; > 100 µM (inactive) with Hs-578T. Also, the GI50 is 17 µM (inactive) in the experiment on MDA-N; 67 µM (inactive) with MOLT-4; 26.7 µM (inactive) with OVCAR-5; 17.9 µM (inactive) in the experiment on SF-539; 27.7 µM (inactive) in the experiment with SK-OV-3; 38.8 µM (inactive) with SW-620. In addition, the GI50 with TK-10 was 44.6 µM (inactive); with UACC-257 it was 43.5 µM (inactive); in the experiment with UACC-62, 22.4 µM (inactive).
Consider `Cc1ccc2nc3c(=O)[nH]c(=O)nc-3n(C)c2c1C`, for which the GI50 with 786-0, in the experiment on A549, in the experiment with COLO 205, with EKVX, with HL-60 and in the experiment on HT-29 was > 100 µM (inactive) each time. For the same compound, the GI50 with Hs-578T was 12.1 µM (inactive); in the experiment on LOX IMVI, > 100 µM (inactive); with MDA-N, > 100 µM (inactive); in the experiment with MOLT-4, > 100 µM (inactive); in the experiment with OVCAR-4, > 100 µM (inactive); in the experiment with OVCAR-5 it was > 100 µM (inactive). In addition, the GI50 in the experiment with RPMI-8226, with SF-539, in the experiment with SK-OV-3, in the experiment with SW-620, in the experiment on TK-10 and in the experiment with UACC-257 was > 100 µM (inactive) each time. The GI50 in the experiment on UACC-62 is > 100 µM (inactive).
On to `CN(Cc1cnc2nc(N)nc(N)c2n1)c1ccc(C(=O)N[C@@H](CCS(=O)(=O)O)C(=O)O)cc1`, for which the GI50 in the experiment with 786-0 is 0.0583 µM (active); with A549, 0.182 µM (active); in the experiment with COLO 205, > 100 µM (inactive); in the experiment with EKVX, > 73.3 µM (inactive); with Hs-578T, > 100 µM (inactive); in the experiment with LOX IMVI it was 0.0526 µM (active). For the same compound, the GI50 with MDA-N was 0.057 µM (active); with MOLT-4, 0.745 µM (active); in the experiment on OVCAR-4, > 100 µM (inactive); in the experiment with SF-539, 0.614 µM (active); in the experiment on SW-620, 0.0824 µM (active); in the experiment with UACC-257 it was > 100 µM (inactive). Besides, the GI50 in the experiment with UACC-62 is 0.248 µM (active).
In the case of `CC(C)(O)C1CC[C@]2(C)CC[C@]3(C)[C@H](CC[C@@H]4[C@@]5(C)CC[C@H](O)C(C)(C)[C@@H]5CC[C@]43C)[C@@H]12` (stereo partly specified), the GI50 is 25.2 µM (inactive) in the experiment on 786-0; 30.1 µM (inactive) in the experiment with A549; 29.7 µM (inactive) in the experiment on COLO 205; 23.2 µM (inactive) in the experiment on EKVX; > 100 µM (inactive) in the experiment on HL-60; 35.8 µM (inactive) in the experiment on HT-29. The GI50 was 22.7 µM (inactive) in the experiment with Hs-578T; 47.8 µM (inactive) with MDA-N; 73.1 µM (inactive) in the experiment with MOLT-4; 27.2 µM (inactive) in the experiment with OVCAR-4; 32.5 µM (inactive) in the experiment on OVCAR-5; 34.3 µM (inactive) in the experiment with RPMI-8226. Also, the GI50 is 23.4 µM (inactive) in the experiment on SF-539; 23.1 µM (inactive) with SK-OV-3; 27.5 µM (inactive) in the experiment on TK-10; 15.4 µM (inactive) in the experiment on UACC-257; 39 µM (inactive) with UACC-62.
Regarding `C[n+]1c(-c2ccc(/C=N/Nc3ccnc(N/N=C/c4ccc(-c5cn6ccccc6[n+]5C)cc4)n3)cc2)cn2ccccc21`, the GI50 with 786-0 was 47.2 µM (inactive); in the experiment on A549, > 100 µM (inactive); with COLO 205, 94 µM (inactive); in the experiment on EKVX it was > 100 µM (inactive); in the experiment with HL-60, 24.5 µM (inactive); in the experiment with HT-29 it was 24.7 µM (inactive). Further, the GI50 in the experiment with Hs-578T is 30.5 µM (inactive); with MDA-N it was 28.9 µM (inactive); in the experiment with MOLT-4 it was > 100 µM (inactive); with OVCAR-4, > 100 µM (inactive); with OVCAR-5, 60.4 µM (inactive); in the experiment on RPMI-8226, 23.5 µM (inactive). The GI50 with SF-539 was 20 µM (inactive); in the experiment on SK-OV-3, > 100 µM (inactive); with SW-620 it was 71.1 µM (inactive); in the experiment with TK-10 it was 41.8 µM (inactive); in the experiment with UACC-257, 24.2 µM (inactive).
